Read-outs that look alike come from different tables or passages of the source.
Key:
[1] = early phase trials, cited from earlier work
[2] = test system: IRAK1 phosphorylation in MDS/AML cells; assay: Immunoblotting for phospho-IRAK1; type: cell-based, human; details: MDSL cells and patient-derived AML(1714), 10 μM, 24 hours
[3] = test system: NF-kB activity upon IL-1β stimulation (IL-1R) in THP1 NF-kB reporter cells; assay: THP1 NF-kB reporter assay, IL-1β stimulation; type: cell-based, human; details: for IC50: Homo sapiens
THP1 and MDSL cells = assay: Growth curves with IRAK4 inhibitors; type: cell-based, human; details: IRAK1KO versus WT MDSL (10 μM) and THP1 (20 μM)

For `Cc1cc(-c2nc(C(=O)Nc3cc4oc(N5CCOCC5)nc4nc3N3CC[C@@H](O)C3)co2)ccn1` [CA-4948, emavusertib], the “Complete or partial response rates” value ([1]; HR-MDS and AML patients) is given as about 40%, the “AML patients with spliceosome mutations reaching CR or CRh” value [1] is given as 40% and the “HR-MDS patients achieving a CR” value [1] is given as 57%. For the same compound, the IRAK1 phosphorylation [2] was “increased IRAK1 phosphorylation”.

With `CC[C@@H]1[C@H](F)C(=O)N[C@@H]1COc1nccc2cc(C(N)=O)c(OC)cc12` [PF-06650833, Zimlovisertib] the IC50 ([3]; THP-1, THP1 NF-kB reporter cells, read-out: IC50 vs. IL-1β (NF-kB activation)) was 5.7 nM, the IC50 ([3]; THP-1, Table 1, unit nM, read-out: THP-1 NFkB IL1B IC50) was 678 nM and the “Span (extent of suppression of signaling through the IL-1R)” value ([3]; THP1 NF-kB reporter cells, IL-1β) was 75%. The “Suppression of NF-kB signaling through the IL-1 receptor” value ([3]; THP1 NF-kB reporter cells, result in words) was “do not fully suppress”, the “LOG (IL1B)” value ([3]; Table 1, log of IL1B IC50) was 2.83 and the “Sensitivity of IRAK1KO MDS/AML cells (growth curves)” value (THP1 and MDSL cells) was “A similar effect was also observed”.
